Assay results published in patent US20210196724A1, “BIARYL COMPOSITIONS AND METHODS FOR MODULATING A KINASE CASCADE” (Athenex, Inc., priority 2016, published 2021).

Columns and labels:
Format in all cases: cell-based
Details in all cases: 72 h
Molt-4 cells = test: CellTiter-Glo cell viability, Molt-4
Protocol: (§1) The cell viability of 50 cancer cell lines was studied after treatment with Compound 121. Inhibition concentration values at 50% (IC50) were determined using CellTiter-Glo luminescent cell viability assay after incubation with different compound concentrations. GI50 values were determined according to the examples described above. Each cell line was treated with Compound 121, a standard chemotherapy drug as a reference control, and culture medium as a vehicle control.
(§2) All cells were cultured in media supplemented with 10-15% FBS at 37° C. in the presence of 5% CO2 and at 95% humidity. The culture medium was purchased from GIBCO or Sigma, USA. Cisplatin was chosen as the reference control and purchased from Hospira Australia Pty Ltd. The cell lines studied are presented in Table 5.
(§3) Cells were harvested during a logarithmic growth period and cell number count was determined using Count-star. Cell concentrations were adjusted to 4.44×10^4 cells/mL with respective culture medium. 90 μL of cell suspensions were added to two 96-well plates (plates A and B) with a final cell density of 4×10^3 cells/well.
(§4) 10 μL of culture medium was added to each well of plate A for TO reading. The plate was allowed to equilibrate at room temperature for approximately 30 min. 50 μL of CellTiter-Glo was added to each well and the contents were mixed for 5 min on an orbital shaker to induce cell lysis. The plate was allowed to incubate at room temperature for 20 min to stabilize luminescent signal.
(§5) 10 μM Compound 121 in media was serially diluted 3.16-fold to achieve 9 dose levels. Similarly, 100 μM reference control in media was serially diluted 3.16-fold to prepare reference control solutions. 10 μL drug solution and 10 μL of reference control was dispensed into each well in plate B.
(§6) Test plate B was incubated for 72 h in a humidified incubator at 37° C. in the presence of 5% CO2 and then subjected to CTG assay. The plate was allowed to equilibrate at room temperature for about 30 min. 50 μL of CellTiter-Glo was added to each well and the contents were mixed for 5 min on an orbital shaker to induce cell lysis. The plate was allowed to incubate at room temperature for 20 min to stabilize luminescent signal.
(§7) IC50 and GI50 values for each of the 50 cell lines are presented in Table 6 and were calculated based on the dose-response curves depicted in FIGS. 1-50. The dose-response curves were fitted using nonlinear regression model with a sigmoidal dose response. The formula for calculating survival rate was calculated by the formula:
(§8) Survival rate (%)=(LumTest article−LumMedium control)/(LumNone treated−LumMedium control)×100.

NCI-H1975 cells = test: CellTiter-Glo cell viability, NCI-H1975
Protocol: as §1, §2, §3, §4, §5, §6, §7, §8

SW579 cells = test: CellTiter-Glo cell viability, SW579
Protocol: as §1, §2, §3, §4, §5, §6, §7, §8

HeLa cells = test: CellTiter-Glo cell viability, HeLa
Protocol: as §1, §2, §3, §4, §5, §6, §7, §8

SK-N-FI cells = test: CellTiter-Glo cell viability, SK-N-FI
Protocol: as §1, §2, §3, §4, §5, §6, §7, §8

HCT-116 cells = test: CellTiter-Glo cell viability, HCT-116
Protocol: as §1, §2, §3, §4, §5, §6, §7, §8

HT-1080 cells = test: CellTiter-Glo cell viability, HT-1080
Protocol: as §1, §2, §3, §4, §5, §6, §7, §8

NCI-H226 cells = test: CellTiter-Glo cell viability, NCI-H226
Protocol: as §1, §2, §3, §4, §5, §6, §7, §8

HuT 78 cells = test: CellTiter-Glo cell viability, HuT 78
Protocol: as §1, §2, §3, §4, §5, §6, §7, §8

OVCAR-3 cells = test: CellTiter-Glo cell viability, OVCAR-3
Protocol: as §1, §2, §3, §4, §5, §6, §7, §8

MDA-MB-231 cells = test: CellTiter-Glo cell viability, MDA-MB-231
Protocol: as §1, §2, §3, §4, §5, §6, §7, §8

HL-60 cells = test: CellTiter-Glo cell viability, HL-60
Protocol: as §1, §2, §3, §4, §5, §6, §7, §8

AN3 CA cells = test: CellTiter-Glo cell viability, AN3 CA
Protocol: as §1, §2, §3, §4, §5, §6, §7, §8

AsPC-1 cells = test: CellTiter-Glo cell viability, AsPC-1
Protocol: as §1, §2, §3, §4, §5, §6, §7, §8

PC-3 cells = test: CellTiter-Glo cell viability, PC-3
Protocol: as §1, §2, §3, §4, §5, §6, §7, §8

U251 cells = test: CellTiter-Glo cell viability, U251
Protocol: as §1, §2, §3, §4, §5, §6, §7, §8

HCT-15 cells = test: CellTiter-Glo cell viability, HCT-15
Protocol: as §1, §2, §3, §4, §5, §6, §7, §8

A-673 cells = test: CellTiter-Glo cell viability, A-673
Protocol: as §1, §2, §3, §4, §5, §6, §7, §8

JHH-5 cells = test: CellTiter-Glo cell viability, JHH-5
Protocol: as §1, §2, §3, §4, §5, §6, §7, §8

BT474 cells = test: CellTiter-Glo cell viability, BT474
Protocol: as §1, §2, §3, §4, §5, §6, §7, §8

143B cells = test: CellTiter-Glo cell viability, 143B
Protocol: as §1, §2, §3, §4, §5, §6, §7, §8

[1] = top conc. 10 μM Compound 121, 100 μM cisplatin

## N.N.[Cl][Pt][Cl] [Cisplatin, reference compound]
Molt-4 cells; read-out: Absolute GI50
  GI50: 0.61 µM
Molt-4 cells; read-out: Absolute IC50
  IC50: 0.71 µM
Molt-4 cells; [1]
  % inhibition at top conc.: 99.96%
NCI-H1975 cells; read-out: Absolute GI50
  GI50: 5.52 µM
NCI-H1975 cells; read-out: Absolute IC50
  IC50: 6.93 µM
NCI-H1975 cells; [1]
  % inhibition at top conc.: 98.75%
SW579 cells; read-out: Absolute GI50
  GI50: 1.83 µM
SW579 cells; read-out: Absolute IC50
  IC50: 2.24 µM
SW579 cells; [1]
  % inhibition at top conc.: 99.88%
HeLa cells; read-out: Absolute GI50
  GI50: 0.3 µM
HeLa cells; [1]
  % inhibition at top conc.: 99.60%
SK-N-FI cells; read-out: Absolute GI50
  GI50: 5.8 µM
SK-N-FI cells; read-out: Absolute IC50
  IC50: 9.26 µM
SK-N-FI cells; [1]
  % inhibition at top conc.: 99.77%
HCT-116 cells; read-out: Absolute GI50
  GI50: 4.14 µM
HCT-116 cells; read-out: Absolute IC50
  IC50: 4.35 µM
HCT-116 cells; [1]
  % inhibition at top conc.: 95.29%
HT-1080 cells; read-out: Absolute GI50
  GI50: 1.98 µM
HT-1080 cells; read-out: Absolute IC50
  IC50: 2.22 µM
HT-1080 cells; [1]
  % inhibition at top conc.: 99.59%
NCI-H226 cells; read-out: Absolute GI50
  GI50: 5.72 µM
NCI-H226 cells; read-out: Absolute IC50
  IC50: 7.36 µM
NCI-H226 cells; [1]
  % inhibition at top conc.: 94.81%
HuT 78 cells; read-out: Absolute GI50
  GI50: 0.5 µM
HuT 78 cells; read-out: Absolute IC50
  IC50: 0.66 µM
HuT 78 cells; [1]
  % inhibition at top conc.: 98.27%
OVCAR-3 cells; read-out: Absolute GI50
  GI50: 3.81 µM
OVCAR-3 cells; read-out: Absolute IC50
  IC50: 4.29 µM
OVCAR-3 cells; [1]
  % inhibition at top conc.: 91.14%
MDA-MB-231 cells; read-out: Absolute GI50
  GI50: 18.6 µM
MDA-MB-231 cells; [1]
  % inhibition at top conc.: 85.68%
HL-60 cells; read-out: Absolute GI50
  GI50: 1.34 µM
HL-60 cells; read-out: Absolute IC50
  IC50: 1.46 µM
HL-60 cells; [1]
  % inhibition at top conc.: 99.99%
AN3 CA cells; read-out: Absolute GI50
  GI50: 3.68 µM
AN3 CA cells; read-out: Absolute IC50
  IC50: 4.38 µM
AN3 CA cells; [1]
  % inhibition at top conc.: 99.95%
AsPC-1 cells; read-out: Absolute GI50
  GI50: 2.73 µM
AsPC-1 cells; read-out: Absolute IC50
  IC50: 3.31 µM
AsPC-1 cells; [1]
  % inhibition at top conc.: 72.39%
PC-3 cells; read-out: Absolute GI50
  GI50: 4.68 µM
PC-3 cells; read-out: Absolute IC50
  IC50: 5.94 µM
PC-3 cells; [1]
  % inhibition at top conc.: 83.88%
U251 cells; read-out: Absolute GI50
  GI50: 3.07 µM
U251 cells; read-out: Absolute IC50
  IC50: 3.98 µM
U251 cells; [1]
  % inhibition at top conc.: 87.70%
HCT-15 cells; read-out: Absolute GI50
  GI50: 4.27 µM
HCT-15 cells; read-out: Absolute IC50
  IC50: 4.76 µM
HCT-15 cells; [1]
  % inhibition at top conc.: 98.22%
A-673 cells; read-out: Absolute GI50
  GI50: 0.4 µM
A-673 cells; read-out: Absolute IC50
  IC50: 1.12 µM
A-673 cells; [1]
  % inhibition at top conc.: 99.59%
JHH-5 cells; read-out: Absolute GI50
  GI50: 1.97 µM
JHH-5 cells; read-out: Absolute IC50
  IC50: 2.27 µM
JHH-5 cells; [1]
  % inhibition at top conc.: 87.18%
BT474 cells; read-out: Absolute GI50
  GI50: 39.3 µM
BT474 cells; read-out: Absolute IC50
  IC50: 45.1 µM
BT474 cells; [1]
  % inhibition at top conc.: 59.96%
143B cells; read-out: Absolute GI50
  GI50: 1.02 µM
143B cells; read-out: Absolute IC50
  IC50: 1.08 µM
143B cells; [1]
  % inhibition at top conc.: 99.94%
